In patent US5824665A, “Reduction of hair growth” (priority 1997, dated 1998):

Legend:
flank organ hair growth = assay: Golden Syrian hamster assay (flank organ hair mass after topical treatment); assay type: in vivo; settings: thirteen applications
Excerpt: Male intact Golden Syrian hamsters are considered acceptable models for human beard hair growth in that they display oval shaped flank organs, one on each side, each about 8 mm in major diameter, which grow thick black and coarse hair similar to human beard hair. These organs produce hair in response to androgens in the hamster. To evaluate the effectiveness of a composition including a hair growth reducing compound, the flank organs of each of a group of hamsters are depilated by applying a thioglycolate based chemical depilatory (Surgex); alternatively, hair were removed by shaving the flank organs prior to topical treatments. To one organ of each animal 10 μl of vehicle alone once a day is applied, while to the other organ of each animal an equal amount of vehicle containing a hair growth reducing compound is applied. After thirteen applications (one application per day for five days a week), the flank organs are shaved and the amount of recovered hair (hair mass) from each is weighed. Percent-reduction of hair growth is calculated by subtracting the hair mass (mg) value of the test compound treated side from the hair mass value of the vehicle treated side; the delta value obtained is then divided by the hair mass value of the vehicle treated side, and the resultant number is multiplied by 100.
The above-described assay will be referred to herein as the "Golden Syrian hamster" assay. Preferred compositions provide an inhibition in hair growth of at least about 20%, more preferably at least about 40%, and most preferably at least about 60% when tested in the Golden Syrian hamster assay.

hair follicle hexokinase = assay: Hexokinase activity in hair follicle extracts; assay type: biochemical, hamster; settings: concentration of 1 mM
Experimental: Measurement of the Hexokinase Activity was Performed as Follows
The enzyme hexokinase was extracted from the hamster hair follicles in a buffer containing Tris-HCL (0.25M, pH 8.1), 1.5 mM EDTA and 5.0 mM MgCl2. The extract was prepared in a manner similar to as described above for phosphofructokinase. The following reagents were mixed together and the change in absorbance at 340 nm was monitored to determine enzyme activity--0.5 ml of the Tris buffer, 0.1 ml ATP (5 mM), 0.1 ml phospho(enol)pyruvate and NADH (0.75 mM and 0.2 mM respectively), 0.1 ml of the follicle extract.

[1] = tested on: hair follicle phosphofructokinase; assay: Phosphofructokinase activity in hair follicle extracts; assay type: biochemical, hamster
Experimental: The activity of two target enzymes (phosphofructokinase and hexokinase) was determined in hair follicle extracts in the presence or absence of select enzyme inhibitors.
Measurement of Phosphofructokinase Activity in Hair Follicle Extracts
Hair follicles from hamster flank organs were excised and an enzyme extract was prepared in a buffered mixture containing 75 mM Tris-HCL, 3 mM MgCl2, and 15 mM (NH4)2 SO4, pH 7.5, using a sonication device. The follicle extracts were passed through a 10,000 molecular weight cut off filter by centrifugation at 12,000 x g. The unfiltered extract was transferred to another filter and a 100 ul aliquot of the magnesium buffer was added. The sample was centrifuged again under similar conditions. This procedure was repeated two additional times.
The washed extract was removed from the insert cup and assayed for phosphofructokinase activity according to the following procedure. The extract was mixed with a solution containing 2.0 ml of the magnesium buffer, 0.1 ml of fructose 6-phosphate (30 mM), 0.1 ml ATP (15 mM), 0.1 ml NADH (1.5 mM), 0.3 ml of mercatopethanol (0.1M), 0.3 ml an auxiliary enzyme mixture made up of aldose (10 units/ml), triosephosphate isomerase (8 units/ml), and α-glycerophosphate dehydrogenae (4 units/ml) in 25 mM Tris-HCI (pH 7.5). […] Change in absorbance at UV 340 nm was used to determine the enzyme activity.

[2] = 10% concentration in vehicle, topical 10 μl once a day, vehicle and pH per compound as in the Table
[3] = 10% concentration in vehicle, topical 10 μl once a day, vs vehicle treated side
[4] = 4.4% concentration, vehicle A pH 7.0, topical
[5] = 15.0% concentration, vehicle G pH 7.0, topical
[6] = 7.5% concentration, vehicle C pH 8.5, topical

Row | Compound | Hair Mass (mg) ± SEM, Treated (flank organ hair growth; [2]) | % Inhibition (hair growth) (flank organ hair growth; [3]) | also measured
1 | 6-Amino-6-deoxy glucose | 0.77 ± .15 mg | 59 ± 6% | inhibition of the hair follicle hexokinase activity (hair follicle hexokinase): 46%
2 | O=C(O)C1(O)CC1 [1-Hydroxy-1-cyclopropanecarboxylic acid] | 1.80 ± .20 mg | 22 ± 9% | –
3 | O=CC[C@@H](O)[C@H](O)[C@H](O)CO [2-Deoxyglucose] | 0.96 ± .16 mg | 38 ± 7% | –
4 | O=C(O)C(=O)CF [3-Fluoropyruvic acid] | 1.14 ± .09 mg | 40 ± 5% | –
5 | Nc1ncnc2c1ncn2[C@@H]1O[C@H](COC(=O)c2ccc(S(=O)(=O)F)cc2)[C@@H](O)[C@H]1O [5'-p-Flurosuflonylbenzoyl adenosine] | – | – | % Inhibition (hair growth) (flank organ hair growth; [4]): 60 ± 3%; Hair Mass (mg) ± SEM, Treated (flank organ hair growth; [4]): 0.74 ± .05 mg
6 | O=C[C@H](O)[C@@H](O)[C@H](O)[C@H](S)CO [5-Thio-D-glucose] | 1.32 ± .20 mg | 49 ± 6% | –
7 | CCCCCCCCCCCCCCCCC(C(=O)O)C(O)(CC(=O)O)C(=O)O (centres unmarked) [Argaric acid] | 0.97 ± .14 mg | 52 ± 4% | inhibition of the hair follicle phosphofructokinase activity ([1]; concentration of 0.15 mM): 76%
8 | O=C(O)C(=O)CBr [Bromopyruvic acid] | 1.10 ± .11 mg | 58 ± 6% | –
9 | O=C(O)[C@H](O)COP(=O)(O)O [D(-)3-Phosphoglyceric acid] | 2.27 ± .22 mg | 21 ± 7% | –
10 | O=C(O)c1cc(=O)c2ccccc2[nH]1 [Kynurenic acid] | 0.98 ± .09 mg | 64 ± 4% | –
11 | N[C@@H]1C(O)O[C@H](CO)[C@@H](O)[C@@H]1O (some centres unmarked) [Mannosamine] | 0.71 ± .13 mg | 68 ± 6% | inhibition of the hair follicle hexokinase activity (hair follicle hexokinase): 100%
12 | CC(=O)N[C@H]1[C@@H](O)[C@H](O)[C@@H](CO)O[C@H]1O [N-Acetyl-β-D-mannosamine] | 0.79 ± .15 mg | 65 ± 7% | inhibition of the hair follicle hexokinase activity (hair follicle hexokinase): 100%
13 | Cc1ccc(S(=O)(=O)N[C@@H](CCCCN)C(=O)CCl)cc1 [N-α-(p-Tosyl)-L-lysine chloromethyl ketone] | 0.48 ± .11 mg | 81 ± 4% | inhibition of the hair follicle hexokinase activity (hair follicle hexokinase): 100%
14 | O=C(O)C(=O)Cc1ccccc1 [Phenylpyruvic acid] | 0.92 ± .21 mg | 54 ± 10% | –
15 | O=C(CCc1ccc(O)cc1)c1c(O)cc(O)cc1O [Phloretin] | – | – | % Inhibition (hair growth) (flank organ hair growth; [5]): 35 ± 7%; Hair Mass (mg) ± SEM, Treated (flank organ hair growth; [5]): 1.34 ± .11 mg
16 | O=C(O)COP(=O)(O)O [Phosphogylcolic acid] | 0.57 ± .09 mg | 66 ± 5% | inhibition of the hair follicle phosphofructokinase activity ([1]; concentration of 0.9 mM): 45%
17 | O=C(O)c1ccc2ccccc2n1 [Quinaldic Acid] | 0.62 ± .08 mg | 69 ± 4% | –
18 | O=C(O)c1cc(O)c2cccc(O)c2n1 [Xanthurenic acid] | – | – | % Inhibition (hair growth) (flank organ hair growth; [6]): 59 ± 4%; Hair Mass (mg) ± SEM, Treated (flank organ hair growth; [6]): 1.26 ± .13 mg
19 | N#CC(=Cc1ccc(O)cc1)C(=O)O [α-Cyano-4-hydroxycinnamic acid] | 0.87 ± .34 mg | 49 ± 17% | –
